From EP4781993A1, “ANTIBACTERIAL COMPOSITION AND ANTIBACTERIAL DRUG” (Shenzhen China Resources Gosun Pharmaceuticals Co., Ltd., priority 2023, dated 2025) come the findings set out here.

Structures can show the parent of a compound that is named as a salt.

One may read the MIC50 as an inhibitory concentration at the 50% level, which refers to growth in some studies and to a panel of isolates in others. For orientation: MIC90 means an inhibitory concentration at the 90% level, which refers to growth in some studies and to a panel of isolates in others.

The test system of test [1] is KPC-2 producing Klebsiella pneumoniae. In words: Broth-microdilution MIC (CLSI M07-A11) against clinical isolates. The format is cell-based. The note with it: for MIC50 / MIC90: Klebsiella pneumoniae; for MIC50 / MIC90 / Mode / MIC range: 12 strains; for MIC50 / MIC90 / MIC range: MIC = ceftobiprole concentration (groups A2, B2, C2, D2, E2: inhibitor alone); for MIC50: read-out: MIC50; for MIC90: read-out: MIC90; for Mode: mode of MIC; for antibacterial activity: verdict in words. From the text: (§1) As recommended by CLSI (Clinical and Laboratory Standards Institute) M07-A11 (2018 edition), the Broth-microdilution method is adopted to determine the minimum inhibitory concentration (MIC) of ceftobiprole and zidebactam against clinical isolates. It should be noted that, in the present disclosure, MIC50 refers to the minimum drug concentration that inhibits the growth of 50% of the tested bacteria, and MIC90 refers to the minimum drug concentration that inhibits the growth of 90% of the tested bacteria.
(§2) Antibacterial drug: ceftobiprole, manufacturer: Shenyang Sanjiu Pharmaceutical, content: 92.1%, batch number: YF/BALP141/000. Zidebactam, manufacturer: Target M01 company, batch number: 149661. Zidebactam, as described above, the English name is Zidebactam, and the chemical name is: (2S,5R)-7-oxo-2-(2-((R)-piperidine-3-carbonyl)hydrazine-1-carbonyl)-1,6-diazabicyclo[3.2.1]octan-6-yl hydrogen sulfate.
(§3) Tested strains: a total of 24 genotypic strains producing KPC or OXA β-lactamase. Specifically, the tested strains include 24 strains of Klebsiella pneumoniae, including 12 KPC-2 producing strains and 12 OXA-232 producing strains.
(§4) Quality control strains: Escherichia coli ATCC 25922, (KPC-2 producing) Klebsiella pneumoniae ATCC BAA-1705, and (NDM-1 producing) Klebsiella pneumoniae ATCC BAA-2146.
(§5) Medium: cation-adjusted Mueller-Hinton broth (CAMHB), a product of BBL Company, USA.
(§6) Inoculum size: Pure isolated colonies were adjusted with normal saline to 0.5 McFarland turbidity. After appropriate dilution, the suspension was added to the wells of a 96-well U-bottom microplate (containing 50 µL antibacterial drug solution). The inoculum size was 5 × 10^5 CFU/mL.
(§7) Culture conditions: air environment, 35°C ± 2°C, 16 to 20 hours.
(§8) Preparation of Antibacterial Drug Solution : Ceftobiprole and zidebactam were taken separately, dissolution and dilution were performed according to the antibacterial drug reference to the CLSI standards and the drug package insert, A1 to A6, a total of 6 groups of antibacterial drug solutions, were prepared, among which, group A1 was the control group containing solely the single agent ceftobiprole, and group A2 was the control group containing solely the single agent zidebactam. Different antibacterial drug solutions with ceftobiprole concentrations ranging from 128 mg/L to 0.06 mg/L were respectively included in groups A1 and A3 to A6, and different antibacterial drug solutions with zidebactam concentrations ranging from 128 mg/L to 0.06 mg/L were included in group A2. The specific concentrations within the range of 128 mg/L to 0.06 mg/L in groups A1 to A6 were respectively 128 mg/L, 64 mg/L, 32 mg/L, 16 mg/L, 8 mg/L, 4 mg/L, 2 mg/L, 1 mg/L, 0.5 mg/L, 0.25 mg/L, 0.125 mg/L, or 0.06 mg/L, respectively. Table 1. Concentrations of ceftobiprole/zidebactam contained in the antibacterial drug solutions of groups A1 to A6
(§9) Experimental results: Currently, there are no established CLSI or EUCAST breakpoints for ceftobiprole/β-lactamase inhibitor. Therefore, the antibacterial activity of ceftobiprole/β-lactamase inhibitor is evaluated in accordance with the standards for ceftobiprole. WHONET 5.6 software is used to perform statistical analysis on the results of antibacterial susceptibility test. The fractional inhibitory concentration index (FIC) for the combination of ceftobiprole and zidebactam is calculated according to Equation (1). FIC index = (MIC of drug A in combination)/(MIC of drug A alone) + (MIC of drug B in combination)/(MIC of drug B alone) [formula]
(§10) In Equation (1), drug A is ceftobiprole, and drug B is zidebactam. […] Table 2. In vitro antibacterial activity of ceftobiprole/zidebactam against the tested bacteria in Example 1 […]
(Broth dilution looks for growth in wells or tubes with falling amounts of substance.)

In test [2] the test system is OXA-232 producing Klebsiella pneumoniae. Described as above. The format is cell-based. The conditions noted are these: for MIC50 / MIC90: Klebsiella pneumoniae; for MIC50 / MIC90 / Mode / MIC range: 12 strains; for MIC50 / MIC90 / MIC range: MIC = ceftobiprole concentration (groups A2, B2, C2, D2, E2: inhibitor alone); for Mode: mode of MIC; for antibacterial activity: verdict in words.
From the text: as §1, §2, §3, §4, §5, §6, §7, §8, §9, §10

Turning to `O=C(NC1CCNCC1)[C@@H]1CC[C@@H]2CN1C(=O)N2OS(=O)(=O)O` [Group C2, (1R,2S,5R)-7-oxo-2-(piperidin-4-ylcarbamoyl)-1,6-diazabicyclo[3.2.1]octan-6-yl hydrogen sulfate], in test [1], the MIC50 is above 128 µg/mL, the MIC90 was above 128 µg/mL, the Mode was above 128 mg/L and the antibacterial activity result is “no antibacterial activity”. For the same compound, in test [1] (MIC 128 mg/L), the “Cumulative inhibition rate (%)” value was determined as 25%, the “Cumulative number of strains” value is on record as 3 and the Number of strains amounted to 3. Moreover, in test [1] (MIC >128 mg/L), the “Cumulative inhibition rate (%)” value came to 100%, the “Cumulative number of strains” value stood at 12 and the Number of strains was 9. In addition, in test [2], the MIC50 is above 128 µg/mL, the MIC90 is above 128 µg/mL, the Mode is above 128 mg/L and the antibacterial activity entry is given as “no antibacterial activity”. In test [2] (MIC 128 mg/L), the “Cumulative inhibition rate (%)” value was 41.7%, the “Cumulative number of strains” value came to 5 and the Number of strains was 5. Besides, in test [2] (MIC >128 mg/L), the “Cumulative inhibition rate (%)” value is on record as 100%, the “Cumulative number of strains” value was 12 and the Number of strains is reported as 7.

With `NCCN[C@H]1CC[C@H](CC(=O)N[C@H]2Cc3cccc(C(=O)O)c3OB2O)CC1` [Group D2, (R)-3-(2-((1r,4R)-4-((2-aminoethyl)amino)cyclohexyl)acetamido)-2-hydroxy-3,4-dihydro-2H-benzo[e][1,2]oxaborinine-8-carboxylic acid], in test [1], the MIC range is above 128 µg/mL, the MIC50 is above 128 µg/mL, the MIC90 is above 128 µg/mL and the Mode is recorded as above 128 mg/L. Also, the antibacterial activity result in test [1] is “no antibacterial activity”. In test [1] (MIC >128 mg/L), the “Cumulative inhibition rate (%)” value is reported as 100%, the “Cumulative number of strains” value came out at 12 and the Number of strains stood at 12. In addition, in test [2], the MIC range was above 128 µg/mL, the MIC50 was above 128 µg/mL, the MIC90 is above 128 µg/mL and the Mode was above 128 mg/L. In addition, the antibacterial activity result in test [2] is reported as “no antibacterial activity”. In test [2] (MIC >128 mg/L), the “Cumulative inhibition rate (%)” value stood at 100%, the “Cumulative number of strains” value is on record as 12 and the Number of strains worked out at 12.

For the compound `C[n+]1ccn(C[C@@]2(C)[C@H](C(=O)[O-])N3C(=O)C[C@H]3S2(=O)=O)n1` [Group E2, (2S,3S,5R)-3-methyl-3-[(3-methyltriazol-3-ium-1-yl)methyl]-4,4,7-trioxo-4-amino-6-thia-1-azabicyclo[3.2.0]heptane-2-carboxylate], in test [1], the MIC range was above 128 µg/mL, the MIC50 was at least 128 µg/mL, the MIC90 is at least 128 µg/mL and the Mode is on record as above 128 mg/L. In test [1], the antibacterial activity entry is given as “no antibacterial activity”. Further, in test [1] (MIC >128 mg/L), the “Cumulative inhibition rate (%)” value was 100%, the “Cumulative number of strains” value was 12 and the Number of strains stood at 12. In test [2], the MIC range is above 128 µg/mL, the MIC50 is at least 128 µg/mL, the MIC90 was at least 128 µg/mL and the Mode is on record as above 128 mg/L. Also, the antibacterial activity entry in test [2] is “no antibacterial activity”. In test [2] (MIC >128 mg/L), the “Cumulative inhibition rate (%)” value was found to be 100%, the “Cumulative number of strains” value was 12 and the Number of strains turned out to be 12.

As to “(3R,6S)-2-hydroxy-3-[[2-(2-thienyl)acetyl]amino]-1,2-oxaborinane-6-acetic acid [Group B2]”, in test [1], the MIC range was above 128 µg/mL, the Mode is above 128 mg/L and the antibacterial activity entry is listed as “no antibacterial activity”. In addition, in test [1] (MIC >128 mg/L), the “Cumulative inhibition rate (%)” value came out at 100%, the “Cumulative number of strains” value worked out at 12 and the Number of strains is given as 12. Besides, in test [2], the MIC range was above 128 µg/mL, the Mode is above 128 mg/L and the antibacterial activity result was “no antibacterial activity”. Moreover, in test [2] (MIC >128 mg/L), the “Cumulative inhibition rate (%)” value is recorded as 100%, the “Cumulative number of strains” value came to 12 and the Number of strains was determined as 12.
